Data from BindingDB's records for doi:10.1021/jm0104062 (Louis Pasteur University, 2002).

Molecular target: P2Y purinoceptor 1 (Homo sapiens, UniProt P47900)
Assay: pA2 value was evaluated against P2Y purinoceptor 1

P2Y purinoceptor 1, sequence (P47900 whole entry): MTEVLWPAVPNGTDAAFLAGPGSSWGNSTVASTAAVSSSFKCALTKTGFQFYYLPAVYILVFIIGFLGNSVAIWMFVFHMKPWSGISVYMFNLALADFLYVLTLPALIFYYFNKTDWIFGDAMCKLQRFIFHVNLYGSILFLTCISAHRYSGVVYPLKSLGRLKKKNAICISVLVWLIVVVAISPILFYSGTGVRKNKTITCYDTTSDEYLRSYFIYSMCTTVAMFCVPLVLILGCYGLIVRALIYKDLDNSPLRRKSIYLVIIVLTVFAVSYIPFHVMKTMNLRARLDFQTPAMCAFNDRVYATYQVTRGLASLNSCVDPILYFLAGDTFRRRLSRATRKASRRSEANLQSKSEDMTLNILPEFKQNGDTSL

`CNc1nc(C)nc2c1ncn2C1CC(OP(=O)(O)O)C(COP(=O)(O)O)O1` (stereo unspecified) gave a Kd of 0.0776 µM.
